Article PMC10361207, “Cannabinoid and Opioid Receptor Affinity and Modulation of Cancer-Related Signaling Pathways of Machaeriols and Machaeridiols from Machaerium Pers” (Molecules, 2023)
Converted amounts (≈) assume the structure as drawn.

experiment: Cytotoxicity, Neutral Red, SK-MEL; type: cell-based; settings: human, SK-MEL malignant melanoma cells, Na = not active up to 50 µg/mL
Description: (§1) In vitro cytotoxic activity was determined against five human cancer cell lines—malignant melanoma (SK-MEL), epidermal carcinoma oral (KB), ductal carcinoma breast (BT-549), ovary carcinoma (SKOV-3) and cervical (HeLa) cancer cells—and two non-cancerous kidney cell lines (LLC-PK1 and Vero). All cell lines were obtained from the American Type Culture Collection (ATCC, Rockville, MD, USA). Each assay was performed in 96-well tissue culture-treated microplates. The cells were seeded at a density of 25,000 cells/well and incubated for 24 h. Samples at different concentrations were added, and the cells were incubated again for 48 h. At the end of the incubation, the cell viability was determined using Neutral Red dye according to a modification of the procedure used by Borenfreund et al.. IC50 values were determined from dose–response curves of the percent growth inhibition against test concentrations. Doxorubicin was used as a positive control, while DMSO was used as the negative (vehicle) control.

Question: With `COc1cccc2c1C(=O)c1c(O)c3c(c(O)c1C2=O)C[C@@](O)(C(=O)CO)C[C@@H]3O[C@H]1C[C@H](N)[C@H](O)[C@H](C)O1` [Doxorubicin, reference compound] as the compound, how does the IC50 at 48 h read?
Answer: Its IC50 at 48 h is 2.2 µg/mL (≈ 4.05 µM).

experiment: Cytotoxicity, Neutral Red, KB; type: cell-based; settings: human, KB epidermal carcinoma (oral) cells, Na = not active up to 50 µg/mL
Description: as §1

Question: Which IC50 at 48 h does the source give for `COc1cccc2c1C(=O)c1c(O)c3c(c(O)c1C2=O)C[C@@](O)(C(=O)CO)C[C@@H]3O[C@H]1C[C@H](N)[C@H](O)[C@H](C)O1` [Doxorubicin, reference compound] here?
Answer: Its IC50 at 48 h is 2.4 µg/mL (≈ 4.42 µM).

experiment: Cytotoxicity, Neutral Red, BT-549; type: cell-based; settings: human, BT-549 breast ductal carcinoma cells, Na = not active up to 50 µg/mL
Description: as §1

Question: Which IC50 at 48 h does the source give for `COc1cccc2c1C(=O)c1c(O)c3c(c(O)c1C2=O)C[C@@](O)(C(=O)CO)C[C@@H]3O[C@H]1C[C@H](N)[C@H](O)[C@H](C)O1` [Doxorubicin, reference compound] here?
Answer: The IC50 at 48 h was 2.4 µg/mL (≈ 4.42 µM).

experiment: Cytotoxicity, Neutral Red, SK-OV-3; type: cell-based; settings: human, SK-OV-3 ovary carcinoma cells, Na = not active up to 50 µg/mL
Description: as §1

Question: Which IC50 at 48 h does the source give for `COc1cccc2c1C(=O)c1c(O)c3c(c(O)c1C2=O)C[C@@](O)(C(=O)CO)C[C@@H]3O[C@H]1C[C@H](N)[C@H](O)[C@H](C)O1` [Doxorubicin, reference compound] here?
Answer: The IC50 at 48 h was 2 µg/mL (≈ 3.68 µM).

experiment: Cytotoxicity, Neutral Red, HeLa; type: cell-based; settings: human, HeLa cervical cancer cells, Na = not active up to 50 µg/mL
Description: as §1

Question: With `COc1cccc2c1C(=O)c1c(O)c3c(c(O)c1C2=O)C[C@@](O)(C(=O)CO)C[C@@H]3O[C@H]1C[C@H](N)[C@H](O)[C@H](C)O1` [Doxorubicin, reference compound] as the compound, how does the IC50 at 48 h read?
Answer: The IC50 at 48 h was 4.3 µg/mL (≈ 7.91 µM).

experiment: Cytotoxicity, Neutral Red, LLC-PK1; type: cell-based; settings: pig, LLC-PK1 kidney epithelial cells, Na = not active up to 50 µg/mL
Description: as §1

Question: With `COc1cccc2c1C(=O)c1c(O)c3c(c(O)c1C2=O)C[C@@](O)(C(=O)CO)C[C@@H]3O[C@H]1C[C@H](N)[C@H](O)[C@H](C)O1` [Doxorubicin, reference compound] as the compound, how does the IC50 at 48 h read?
Answer: The IC50 at 48 h was 1.1 µg/mL (≈ 2.02 µM).

experiment: Cytotoxicity, Neutral Red, Vero; type: cell-based; settings: monkey, Vero kidney fibroblasts, Na = not active up to 50 µg/mL
Description: as §1

Question: For `COc1cccc2c1C(=O)c1c(O)c3c(c(O)c1C2=O)C[C@@](O)(C(=O)CO)C[C@@H]3O[C@H]1C[C@H](N)[C@H](O)[C@H](C)O1` [Doxorubicin, reference compound], which IC50 at 48 h is on record?
Answer: Its IC50 at 48 h is > 5 µg/mL.
